# Measured values: article PMC5417683, “Plastidial α-glucan phosphorylase 1 complexes with disproportionating enzyme 1 in Ipomoea batatas storage roots for elevating malto-oligosaccharide metabolism” (PLoS ONE, 2017)
# Target: T1, Pho1 (free form) (Ipomoea batatas, UniProt P27598)
# T1 construct: native, purified from storage roots; 110-kDa band; 220-kDa homodimer
# T1 sequence (P27598 44-955): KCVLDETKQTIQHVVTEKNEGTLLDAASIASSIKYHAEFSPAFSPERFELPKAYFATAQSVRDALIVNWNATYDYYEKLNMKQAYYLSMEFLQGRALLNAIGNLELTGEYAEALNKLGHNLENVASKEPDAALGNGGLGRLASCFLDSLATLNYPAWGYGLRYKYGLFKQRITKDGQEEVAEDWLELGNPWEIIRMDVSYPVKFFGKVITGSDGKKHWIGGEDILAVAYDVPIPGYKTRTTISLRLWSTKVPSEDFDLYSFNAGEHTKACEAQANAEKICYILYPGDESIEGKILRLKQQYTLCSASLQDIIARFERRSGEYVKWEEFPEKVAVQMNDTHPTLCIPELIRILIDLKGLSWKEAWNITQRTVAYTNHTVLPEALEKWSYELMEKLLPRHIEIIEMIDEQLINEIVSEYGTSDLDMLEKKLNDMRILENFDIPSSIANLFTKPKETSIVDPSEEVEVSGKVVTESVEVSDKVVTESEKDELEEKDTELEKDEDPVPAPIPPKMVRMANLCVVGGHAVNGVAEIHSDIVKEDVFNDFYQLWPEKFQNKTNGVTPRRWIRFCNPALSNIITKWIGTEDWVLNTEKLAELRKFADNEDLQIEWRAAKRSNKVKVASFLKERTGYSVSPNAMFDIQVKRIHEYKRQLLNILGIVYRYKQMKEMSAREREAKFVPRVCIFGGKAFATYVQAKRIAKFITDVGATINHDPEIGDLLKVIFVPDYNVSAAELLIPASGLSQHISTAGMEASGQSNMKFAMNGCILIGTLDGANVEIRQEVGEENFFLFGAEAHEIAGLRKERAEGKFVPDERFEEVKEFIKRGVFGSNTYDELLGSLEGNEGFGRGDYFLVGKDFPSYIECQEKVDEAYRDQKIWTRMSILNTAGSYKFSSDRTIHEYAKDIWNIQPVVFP
# Assay: Glc-1-P production, coupled phosphoglucomutase / Glc-6-P dehydrogenase (NADPH)
# Assay type: biochemical
# Settings: 0.5 mM substrate, 0.5 mM inorganic phosphate, 50 mM sodium acetate pH 6.0, 37°C, 1 h; phosphorolysis
smiles,measurement,value
"OC[C@H]1O[C@H](O[C@H]2[C@H](O)[C@@H](O)[C@@H](O[C@H]3[C@H](O)[C@@H](O)[C@@H](O[C@H]4[C@H](O)[C@@H](O)[C@@H](O[C@H]5[C@H](O)[C@@H](O)C(O)O[C@@H]5CO)O[C@@H]4CO)O[C@@H]3CO)O[C@@H]2CO)[C@H](O)[C@@H](O)[C@@H]1O (some centres unmarked) [G5, maltopentaose]","Glc-1-P production, coupled phosphoglucomutase / Glc-6-P dehydrogenase (NADPH)","displayed high catalytic activity with G5, G6, G7, or dextrin to produce Glc-1-P"
"OC[C@H]1O[C@H](O[C@H]2[C@H](O)[C@@H](O)[C@@H](O[C@H]3[C@H](O)[C@@H](O)[C@@H](O[C@H]4[C@H](O)[C@@H](O)[C@@H](O[C@H]5[C@H](O)[C@@H](O)[C@@H](O[C@H]6[C@H](O)[C@@H](O)C(O)O[C@@H]6CO)O[C@@H]5CO)O[C@@H]4CO)O[C@@H]3CO)O[C@@H]2CO)[C@H](O)[C@@H](O)[C@@H]1O (some centres unmarked) [G6, maltohexaose]","Glc-1-P production, coupled phosphoglucomutase / Glc-6-P dehydrogenase (NADPH)","displayed high catalytic activity with G5, G6, G7, or dextrin to produce Glc-1-P"
